Five compounds from BindingDB's records for doi:10.1021/jm00003a020 (University of Washington, 1995) can be followed below.

As a reminder, the IC50 is the concentration that inhibits the measured activity by half. Read a high IC50 as weaker potency.

This assay is described as follows: Inhibitory concentration was determined against delta-opioid receptor using [3H]- DPDPE radioligand.
`Oc1ccc2c3c1O[C@H]1[C@H](OCc4ccc(N=C=S)cc4)CC[C@@]4(O)C(C2)N(CC2CC2)CCC314` (stereo partly drawn) [4-cyclopropylmethyl-14-(4-isothiocyanatobenzyloxy)-(1S,13R,14R,17S)-12-oxa-4-azapentacyclo[9.6.1.01,13.05,17.07,18]octadeca-7,9,11(18)-triene-10,17-diol(p-NCS)]: the IC50 was 35 nM.

As for `Oc1ccc2c3c1O[C@H]1[C@H](OCc4ccccc4CN=C=S)CC[C@@]4(O)C(C2)N(CC2CC2)CCC314` (stereo partly drawn) [4-cyclopropylmethyl-14-(2-isothiocyanatomethylbenzyloxy)-(1S,13R,14R,17S)-12-oxa-4-azapentacyclo[9.6.1.01,13.05,17.07,18]octadeca-7,9,11(18)-triene-10,17-diol(o-CH2NCS)], the 50% inhibitory concentration (IC50) stood at 22 nM.

In the case of `Oc1ccc2c3c1O[C@H]1[C@H](OCc4ccccc4N=C=S)CC[C@@]4(O)C(C2)N(CC2CC2)CCC314` (stereo partly drawn) [4-cyclopropylmethyl-14-(2-isothiocyanatobenzyloxy)-(13R,14R,17S)-12-oxa-4-azapentacyclo[9.6.1.01,13.05,17.07,18]octadeca-7,9,11(18)-triene-10,17-diol(o-NCS)], the 50% inhibitory concentration (IC50) is 1.8 nM.

For the compound `Oc1ccc2c3c1O[C@H]1[C@H](OCc4cccc(N=C=S)c4)CC[C@@]4(O)C(C2)N(CC2CC2)CCC314` (stereo partly drawn) [4-cyclopropylmethyl-14-(3-isothiocyanatobenzyloxy)-(1S,13R,14R,17S)-12-oxa-4-azapentacyclo[9.6.1.01,13.05,17.07,18]octadeca-7,9,11(18)-triene-10,17-diol(m-NCS)], the IC50 was determined as 6.5 nM.

Compound `Oc1ccc2c3c1O[C@H]1[C@H](OCc4cccc(CN=C=S)c4)CC[C@@]4(O)C(C2)N(CC2CC2)CCC314` (stereo partly drawn) [4-cyclopropylmethyl-14-(3-isothiocyanatomethylbenzyloxy)-(1S,13R,14R,17S)-12-oxa-4-azapentacyclo[9.6.1.01,13.05,17.07,18]octadeca-7,9,11(18)-triene-10,17-diol(m-CH2NCS)] gave an IC50 of 12 nM.
